PubChem BioAssay AID1845194 (Molecular Pharmacology Branch, DTP, NCI, 2023)

Test system: 287954-098-R-J1 tumor spheroid viability
Assay: Anticancer human tumor 287954-098-R-J1 patient-derived Ewing sarcoma cell line growth inhibition
Settings: spheroids with HUVEC and MSC; for IC50: curve of first compound; for viability, T/C: stronger effect = lower value
Method in brief: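 Complex spheroids of malignant cells with endothelial cells and mesenchymal stem cells; agents alone or combined, from near clinical Cmax (or 10 microM if unknown) down in half-log steps, 0.25% DMSO final.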

[1] = second compound 0.003 µM, first compound 0.00949 µM
[2] = second compound 0.003 µM, first compound 0.03 µM
[3] = second compound 0.003 µM, first compound 0.0949 µM
[4] = second compound 0.003 µM, first compound 0.3 µM
[5] = second compound 0.003 µM, first compound 0.949 µM
[6] = second compound 0.003 µM, first compound 3 µM
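Also: spheroids exposed to compound for 7 days before viability readout.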
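For viability, T/C in this document: luminescent signal taken as surrogate of viable cell content; 100% = DMSO vehicle control viability and lower means growth inhibition.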

`COc1ccc([C@@H](O)c2cc(-c3ncnc4cc(N5CCOCC5)ccc34)c(F)cc2Cl)nn1` + CC[C@@]1(O)C(=O)OCc2c1cc1n(c2=O)Cc2cc3c(CN(C)C)c(O)ccc3nc2-1 was tested, and the IC50 (second compound 0.003 µM) was over 10000 nM, the IC50 (second compound 0.00949 µM) was over 10000 nM and the IC50 (second compound 0.03 µM) was under 31.6 nM. It also gave an IC50 (second compound 0.0949 µM) of under 31.6 nM, an IC50 (second compound 0.3 µM) of under 31.6 nM and a viability, T/C (second compound 0.003 µM, first compound 0.0316 µM) of 91.5%. It also gave a viability, T/C (second compound 0.003 µM, first compound 0.1 µM) of 97.4%, a viability, T/C (second compound 0.003 µM, first compound 0.316 µM) of 95.8% and a viability, T/C (second compound 0.003 µM, first compound 1 µM) of 105%. It also gave a viability, T/C (second compound 0.003 µM, first compound 3.16 µM) of 96.5%, a viability, T/C (second compound 0.003 µM, first compound 10 µM) of 83.9% and a viability, T/C (second compound 0.00949 µM, first compound 0.0316 µM) of 94.3%. It also gave a viability, T/C (second compound 0.00949 µM, first compound 0.1 µM) of 94.1%, a viability, T/C (second compound 0.00949 µM, first compound 0.316 µM) of 100% and a viability, T/C (second compound 0.00949 µM, first compound 1 µM) of 92.1%. For the same compound, the viability, T/C (second compound 0.00949 µM, first compound 3.16 µM) was 93.2%, the viability, T/C (second compound 0.00949 µM, first compound 10 µM) was 54.9% and the viability, T/C (second compound 0.03 µM, first compound 0.0316 µM) was 21.7%. For the same compound, the viability, T/C (second compound 0.03 µM, first compound 0.1 µM) was 24.2%, the viability, T/C (second compound 0.03 µM, first compound 0.316 µM) was 11.3% and the viability, T/C (second compound 0.03 µM, first compound 1 µM) was 5.39%. The viability, T/C (second compound 0.03 µM, first compound 3.16 µM) was 0.97%, the viability, T/C (second compound 0.03 µM, first compound 10 µM) was 5.74% and the viability, T/C (second compound 0.0949 µM, first compound 0.0316 µM) was 1.23%. It also gave a viability, T/C (second compound 0.0949 µM, first compound 0.1 µM) of 1.03%, a viability, T/C (second compound 0.0949 µM, first compound 0.316 µM) of 1.21% and a viability, T/C (second compound 0.0949 µM, first compound 1 µM) of 0.99%. For the same compound, the viability, T/C (second compound 0.0949 µM, first compound 3.16 µM) was 0.52%, the viability, T/C (second compound 0.0949 µM, first compound 10 µM) was 0.59% and the viability, T/C (second compound 0.3 µM, first compound 0.0316 µM) was 1.41%. It also gave a viability, T/C (second compound 0.3 µM, first compound 0.1 µM) of 1.01%, a viability, T/C (second compound 0.3 µM, first compound 0.316 µM) of 1.15% and a viability, T/C (second compound 0.3 µM, first compound 1 µM) of 0.88%. It also gave a viability, T/C (second compound 0.3 µM, first compound 3.16 µM) of 0.44% and a viability, T/C (second compound 0.3 µM, first compound 10 µM) of 0.41%.

For `Cc1sc2c(c1C)C(c1ccc(Cl)cc1)=NC(CC(=O)Nc1ccc(O)cc1)c1nnc(C)n1-2` (stereo not given) + CC[C@@]1(O)C(=O)OCc2c1cc1n(c2=O)Cc2cc3c(CN(C)C)c(O)ccc3nc2-1, the IC50 (second compound 0.003 µM) was 555 nM, the IC50 (second compound 0.00949 µM) was 185 nM and the IC50 (second compound 0.03 µM) was under 9.49 nM. The IC50 (second compound 0.0949 µM) was under 9.49 nM, the IC50 (second compound 0.3 µM) was under 9.49 nM and the viability, T/C [1] was 110%. The viability, T/C [2] was 117%, the viability, T/C [3] was 123% and the viability, T/C [4] was 90.1%. The viability, T/C [5] was 15.2%, the viability, T/C [6] was 1.91% and the viability, T/C (second compound 0.00949 µM, first compound 0.00949 µM) was 117%. The viability, T/C (second compound 0.00949 µM, first compound 0.03 µM) was 112%, the viability, T/C (second compound 0.00949 µM, first compound 0.0949 µM) was 106% and the viability, T/C (second compound 0.00949 µM, first compound 0.3 µM) was 9.5%. The viability, T/C (second compound 0.00949 µM, first compound 0.949 µM) was 1.8%, the viability, T/C (second compound 0.00949 µM, first compound 3 µM) was 1.47% and the viability, T/C (second compound 0.03 µM, first compound 0.00949 µM) was 2.84%. For the same compound, the viability, T/C (second compound 0.03 µM, first compound 0.03 µM) was 3%, the viability, T/C (second compound 0.03 µM, first compound 0.0949 µM) was 1.99% and the viability, T/C (second compound 0.03 µM, first compound 0.3 µM) was 1.63%. It also gave a viability, T/C (second compound 0.03 µM, first compound 0.949 µM) of 1.17%, a viability, T/C (second compound 0.03 µM, first compound 3 µM) of 1.04% and a viability, T/C (second compound 0.0949 µM, first compound 0.00949 µM) of 1.98%. The viability, T/C (second compound 0.0949 µM, first compound 0.03 µM) was 2.06%, the viability, T/C (second compound 0.0949 µM, first compound 0.0949 µM) was 1.8% and the viability, T/C (second compound 0.0949 µM, first compound 0.3 µM) was 1.32%. It also gave a viability, T/C (second compound 0.0949 µM, first compound 0.949 µM) of 1.09%, a viability, T/C (second compound 0.0949 µM, first compound 3 µM) of 1.22% and a viability, T/C (second compound 0.3 µM, first compound 0.00949 µM) of 1.94%. It also gave a viability, T/C (second compound 0.3 µM, first compound 0.03 µM) of 2.02%, a viability, T/C (second compound 0.3 µM, first compound 0.0949 µM) of 1.68% and a viability, T/C (second compound 0.3 µM, first compound 0.3 µM) of 1.25%. It also gave a viability, T/C (second compound 0.3 µM, first compound 0.949 µM) of 1.2% and a viability, T/C (second compound 0.3 µM, first compound 3 µM) of 1%.

`Cn1ncnc1[C@H]1c2n[nH]c(=O)c3cc(F)cc(c23)N[C@@H]1c1ccc(F)cc1` + COc1cc2c(cc1O)CCNC21CSC2c3c(OC(C)=O)c(C)c4c(c3C(COC1=O)N1C(O)C3Cc5cc(C)c(OC)c(O)c5C(C21)N3C)OCO4 showed an IC50 (second compound 30 pM) of 575 nM, an IC50 (second compound 94.9 pM) of 477 nM and an IC50 (second compound 0.0003 µM) of 39 nM. The IC50 (second compound 0.000949 µM) was under 9.49 nM, the IC50 (second compound 0.003 µM) was under 9.49 nM and the viability, T/C (second compound 30 pM, first compound 0.00949 µM) was 99%. For the same compound, the viability, T/C (second compound 30 pM, first compound 0.03 µM) was 111%, the viability, T/C (second compound 30 pM, first compound 0.0949 µM) was 102% and the viability, T/C (second compound 30 pM, first compound 0.3 µM) was 97.6%. The viability, T/C (second compound 30 pM, first compound 0.949 µM) was 13.3%, the viability, T/C (second compound 30 pM, first compound 3 µM) was 1.27% and the viability, T/C (second compound 94.9 pM, first compound 0.00949 µM) was 107%. The viability, T/C (second compound 94.9 pM, first compound 0.03 µM) was 104%, the viability, T/C (second compound 94.9 pM, first compound 0.0949 µM) was 106% and the viability, T/C (second compound 94.9 pM, first compound 0.3 µM) was 82.7%. It also gave a viability, T/C (second compound 94.9 pM, first compound 0.949 µM) of 1.42%, a viability, T/C (second compound 94.9 pM, first compound 3 µM) of 1.02% and a viability, T/C (second compound 0.0003 µM, first compound 0.00949 µM) of 81.8%. The viability, T/C (second compound 0.0003 µM, first compound 0.03 µM) was 63%, the viability, T/C (second compound 0.0003 µM, first compound 0.0949 µM) was 6% and the viability, T/C (second compound 0.0003 µM, first compound 0.3 µM) was 1.31%. For the same compound, the viability, T/C (second compound 0.0003 µM, first compound 0.949 µM) was 0.92%, the viability, T/C (second compound 0.0003 µM, first compound 3 µM) was 0.91% and the viability, T/C (second compound 0.000949 µM, first compound 0.00949 µM) was 0.31%. For the same compound, the viability, T/C (second compound 0.000949 µM, first compound 0.03 µM) was 0.21%, the viability, T/C (second compound 0.000949 µM, first compound 0.0949 µM) was 0.23% and the viability, T/C (second compound 0.000949 µM, first compound 0.3 µM) was 0.13%. For the same compound, the viability, T/C (second compound 0.000949 µM, first compound 0.949 µM) was 0.04%, the viability, T/C (second compound 0.000949 µM, first compound 3 µM) was 0.12% and the viability, T/C [1] was 0.16%. It also gave a viability, T/C [2] of 0.17%, a viability, T/C [3] of 0.13% and a viability, T/C [4] of 0.12%. The viability, T/C [5] was 0.12% and the viability, T/C [6] was 0.2%.
